Reference: article PMC6770006, “Novel Heat Shock Protein 90 Inhibitors Suppress P-Glycoprotein Activity and Overcome Multidrug Resistance in Cancer Cells” (International Journal of Molecular Sciences, 2019)

Key:
[1] = tested on: DLD1-TxR cells; experiment: Combined treatment of compound 5 with PTX, MTT, median effect analysis; assay type: cell-based, human; conditions: PTX resistance
Description: The combined effects of compound 5 with DOX as well as with PTX were studied in NCI-H460/R and DLD1-TxR cells, respectively, by MTT assay. In simultaneous treatments that lasted 72 h in NCI-H460/R cells, three concentrations of compound 5 (2.5, 5, and 10 µM) were combined with increasing concentrations of DOX (250, 500 and 1000 nM), while in DLD1-TxR cells different concentrations of compound 5 (1, 2.5, and 5 µM) were combined with increasing concentrations of PTX (100, 250 and 500 nM). The nature of the interaction between Hsp90 inhibitors and DOX/PTX was analyzed with CalcuSyn software v1.1 (Biosoft, Cambridge, UK) that uses the Combination Index method based on the multiple drug effect equation [54]. Three data points were used for each single drug in each experiment. The non-constant ratio combination was chosen to assess the effect of both drugs in combination. The results are presented in a fraction-affected CI graph. Values of CI < 1 point to a pronounced additive effect or synergism (the smaller value, the greater the degree of synergy). A value of CI = 1 indicates an additive effect, while values of CI > 1 point to an antagonistic effect.

[2] = tested on: DLD1-TxR cells; experiment: MTT assay, cell growth inhibition, DLD1-TxR (MDR); assay type: cell-based, human; conditions: 72 h; for IC50: Homo sapiens, MDR cells
Description: (§1) A series of 3-aryl-naphtho[2,3-d]isoxazole-4,9-diones were synthesized (Scheme 1, Figure 1) and their growth inhibition activity was tested in vitro on human non-small cell lung carcinoma NCI-H460, colorectal carcinoma DLD1 and their corresponding MDR cells (NCI-H460/R and DLD1-TxR, respectively), as well as normal embryonic lung fibroblasts MRC-5. The differences in cell growth inhibition between cancer and normal cells obtained by the MTT assay after 72 h treatment are presented in Table 1. The effect of compounds is presented as IC50 values that correspond to the 50% of cell growth inhibition.
(§2) Human colorectal carcinoma (DLD1), non-small cell lung carcinoma (NCI-H460), and normal embryonic lung fibroblast (MRC-5) cell lines were purchased from the American Type Culture Collection, Rockville, MD. P-gp overexpressing multidrug resistant DLD1-TxR cells were selected by continuous exposure to stepwise increasing concentrations of paclitaxel from DLD1 cells, while NCI-H460/R cells were selected from NCI-H460 cells after DOX selective pressure. MDR cancer cell lines, DLD1-TxR and NCI-H460/R, and their sensitive counterparts were maintained in RPMI 1640 medium supplemented with 10% FBS, 2 mM L-glutamine, and 10,000 U/mL penicillin, 10 mg/mL streptomycin, 25 mg/mL amphotericin B solutions. MRC-5 cells were cultured in DMEM supplemented with 10% FBS, 4 g/L glucose, 2 mM L-glutamine and 5000 U/mL penicillin, 5 mg/mL streptomycin solution. All cell lines were sub-cultured at 72 h intervals using 0.25% trypsin/EDTA and seeded into a fresh medium at 8000 cells/cm^2. All cell lines were maintained at 37 °C in a humidified 5% CO2 atmosphere.
(§3) Cell viability was assessed by the MTT assay (AppliChem GmbH, Darmstadt, Germany). Cells grown in 25 cm^2 tissue flasks were trypsinized and 1000 cells/well were seeded into flat-bottomed 96-well tissue culture plates and incubated overnight. Subsequently, the cells were treated with increasing concentrations of Hsp90 inhibitors for 72 h: compound 3 (0.1–2.5 µM), compound 4 (0.25–5 µM), compound 5 (0.5–25 µM), compound 6 (50–1000 nM), compound 7 (10–250 nM), compound 8 (0.25–5 µM), compound 9 (10–250 nM), compound 10 (0.5–25 µM), compound 13 (0.5–10 µM), compound 14 (1–25 µM), and compound 15 (10–250 nM). […] After treatment, MTT was added to each well in a final concentration of 0.2 mg/mL for 4 h. Formazan product was dissolved in 200 µl of DMSO, and the absorbance was measured at 540 nm using an automatic LKB 5060-006 Micro Plate Reader (Vienna, Austria). IC50 value was defined as a concentration of the drug that inhibited cell growth by 50% and was calculated by nonlinear regression analysis using GraphPad Prism 6.0 for Windows (La Jolla, CA, USA). Relative selectivity towards cancer cells was calculated as a relation between IC50 value obtained in MRC-5 cells and an average IC50 value from four tested cancer cell lines.

[3] = tested on: NCI-H460, NCI-H460/R, DLD1, DLD1-TxR cells; experiment: MTT assay, grouping of inhibitors by IC50 over the cancer cell lines; assay type: cell-based; conditions: Homo sapiens, Figure 2b, read-out: IC50 values (grouping for Pearson correlation)
Description: When the IC50 values obtained by the MTT assay were compared to Hsp90 affinity binding IC50 values (Table 1), a positive Pearson correlation (r > 0.5) was found for all cancer cell lines (Figure 2b).
as §3

[4] = tested on: MRC-5 cells; experiment: MTT assay, normal embryonic lung fibroblasts MRC-5; assay type: cell-based, human; conditions: for IC50: Homo sapiens, MRC5, MTT, 72 h, normal fibroblasts, read-out: Cell growth inhibition IC50, MRC-5; for Relative Selectivity: IC50 in MRC-5 cells / average IC50 of four cancer cell lines
Description: as §1, §3

[5] = tested on: NCI-H460/R cells; experiment: MTT assay, cell growth inhibition, NCI-H460/R (MDR); assay type: cell-based, human; conditions: for Efficacy in MDR NCI-H460/R cells compared with sensitive NCI-H460: 72 h; for IC50: Homo sapiens, NCI-H460, 72 h, MDR cells
Description: as §1, §2, §3

[6] = tested on: P-gp expression; experiment: Flow cytometric analysis of P-gp expression; assay type: cell-based, human; conditions: 72 h; for Change in P-gp expression, DLD1 / Change in P-gp expression, NCI-H460: 5 µM 5, 200 nM 7, 100 nM 9, 10 nM TQ, 50 nM DOX, 50 nM PTX
Description: P-glycoprotein expression level in NCI-H460, NCI-H460/R, DLD1, and DLD1-TxR and cells was measured by flow cytometry. All cell lines were seeded in adherent 6-well plates and treated with Hsp90 inhibitors for 72 h at the following concentrations: 5 µM compound 5, 200 nM compound 7, 100 nM compound 9 (NCI-H460 and DLD1), and 10 µM compound 5, 500 nM compound 7, 500 nM compound 9 (NCI-H460/R and DLD1-TxR). Cells were also treated with 10 nM TQ, a non-competitive P-gp inhibitor, which served as a positive control. In addition, sensitive cells (NCI-H460 and DLD1) were treated with 50 nM DOX and 50 nM PTX that served as positive controls for the induction of P-gp expression. Then, cells were collected by trypsinization, washed with PBS, and directly immunostained by FITC-conjugated anti-P-gp antibody according to the manufacturer’s protocol. The samples were kept in the dark until the analysis on CyFlow Space Partec flow cytometer (Sysmex Partec GmbH, Görlitz, Germany). The fluorescence of FITC-conjugated anti-P-gp was detected on fluorescence channel 1 (FL1-H) at 530 nm. A minimum of 10,000 events were collected for each sample (the gate excluded cell debris and dead cells) and the obtained results were analyzed with Summit software v4.3 (Dako Colorado Inc., Fort Collins, CO, USA).

| SMILES | Relative Reversal ([1]; 1 µM compound 5) | Relative Reversal ([1]; 2.5 µM compound 5) | Relative Reversal ([1]; 5 µM compound 5) | Efficacy in MDR DLD1-TxR cells compared with sensitive DLD1 [2] | IC50 [2] | IC50 [3] | IC50 [4] | Relative Selectivity [4] | Efficacy in MDR NCI-H460/R cells compared with sensitive NCI-H460 [5] | IC50 [5] | Change in P-gp expression, DLD1 [6] | Change in P-gp expression, NCI-H460 [6] | Change in P-gp expression, NCI-H460/R ([6]; 10 µM 5, 500 nM 7, 500 nM 9, 10 nM TQ) |
| --- | --- | --- | --- | --- | --- | --- | --- | --- | --- | --- | --- | --- | --- |
| O=C1c2ccccc2C(=O)c2c(-c3ccccc3O)noc21 [Compound 5] | 1.80 | 2.60 | 5.27 | further compromised in the presence of MDR phenotype | 11100 ± 304 nM | ≥ 1000 nM | 128000 ± 39000 nM | 10.64 | further compromised in the presence of MDR phenotype | 25500 ± 925 nM | did not change P-gp expression | did not change P-gp expression | significantly increased P-gp expression |
| O=C1c2ccccc2C(=O)c2c(-c3cccnc3)noc21 [Compound 9] |  |  |  |  | 50 ± 1 nM | < 1000 nM | 302 ± 8 nM | 3.33 |  | 172 ± 5 nM | did not change P-gp expression | did not change P-gp expression |  |
| O=C1c2ccccc2C(=O)c2c(-c3ccncc3)noc21 [Compound 7] |  |  |  | evaded resistance in both MDR cancer cell lines | 138 ± 3 nM | < 1000 nM | 599 ± 15 nM | 3.31 | evaded resistance in both MDR cancer cell lines | 231 ± 6 nM | did not change P-gp expression | did not change P-gp expression |  |
